Experimental data published in patent US20050059014A1, “Analytical platform and detection method with the analytes to be determined in a sample as immobilized specific binding partners” (priority 2002, published 2005).

System: Phospho-p44/42 MAP kinase (pErk2)
Assay: Cell lysate array on evanescent field sensor platform, detection with antibody A3
Type: cell-based, human
Conditions: Jurkat cells, staurosporine 10 μM, 180 min
Procedure: Human T-cell cultures (Jurkat, DMZ # ACC282) are utilized for the detection of biologically relevant protein analytes in “nature-identical” samples. These cells are cultivated at 37° C. in a solution containing RPMI 1640, 10 % FCS (fetal calf serum), 2 mM glutamine, 50 U/ml penicillin, 50 μg/ml streptamycine (cell density at about 0.5−×10^6−1.0×10^6 cells/ml).
Then the cell cultures treated as described above and the untreated cell cultures, respectively, are cooled to 4° C. and formed to pellets by centrifugation at a centrifugal force of 350×g (number of cells at about 10^7).The cells here are simply separated from the medium, without damage to the cells. […]
The fluorescence signals from the various arrays of measurement areas undergo automatic sequential measurement using a ZeptoREADER™ (Zeptosens AG, Benkenstrasse 254, CH-4108 Witterswil). […] Then, for each array, images of the fluorescence signals from the corresponding array are generated, wherein the user can select different exposure times and the number of images to be generated. In the case of measurements for the present example, the excitation wavelength is 633 nm, and the detection of the fluorescence light at the fluorescence wavelength of Cy5 is performed using a cooled camera, an interference filter (transmission 670 nm ±20 nm) for suppression of scattered light being positioned in front of the lens of the camera. […]

## CN[C@@H]1C[C@H]2O[C@@](C)([C@@H]1OC)n1c3ccccc3c3c4c(c5c6ccccc6n2c5c31)C(=O)NC4 [staurosporin, staurosporine]
  pErk2 signal of the nonstimulated control sample compared with the sample treated with staurosporin: only slightly higher
